This note sets out measurements from ChEMBL document CHEMBL1201862, “PubChem BioAssay data set” (2004).

Molecules are shown by their SMILES.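 Compound exposure: 48 hours, 5 concentrations, 96-well plates. The concentration for 50% growth inhibition is given as GI50.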 Calls of active or inactive are those of the source. Cut-off read from the data, not from the text of the source: active = GI50 up to about 1.1 µM and inactive = higher. Bounds are passed on as bounds.

Among the test systems are HOP-62; MDA-MB-435; UACC-257; K562; SR; ACHN; EKVX; DU-145; COLO 205; SNB-19; SW-620; MDA-MB-231; HCT-15; A549; HL-60; OVCAR-5; MCF7; SN12C; MDA-N; Malme-3M.
Common to all, as to assay: NCI tumour cell line growth inhibition, 48 h

Turning to `COc1ccc2oc(C(=O)N3CC(CCl)c4ccc([N+](=O)[O-])cc43)cc2c1` (stereo not drawn), the GI50 in the test on HOP-62 was 12.4 µM (inactive); in the test with MDA-MB-435, 0.468 µM (active); in the test on UACC-257, > 100 µM (inactive); in the test with K562, > 100 µM (inactive); in the test with SR it was 0.402 µM (active); in the test with ACHN it was 40.6 µM (inactive). Also, the GI50 in the test with EKVX is 15.8 µM (inactive); in the test with DU-145 it was 25.4 µM (inactive); in the test on COLO 205 it was 74.6 µM (inactive); with SNB-19 it was 25.2 µM (inactive); in the test with SW-620 it was > 100 µM (inactive); in the test on MDA-MB-231 it was 14.9 µM (inactive).
For the molecule `Cc1ccc(/C=C2/NC(=S)SC2=O)cc1`, the GI50 is 51.6 µM (inactive) in the test with HOP-62; 36.5 µM (inactive) with MDA-MB-435; 31.4 µM (inactive) with UACC-257; 24.2 µM with HCT-15; 36.7 µM (inactive) in the test with A549; 33 µM (inactive) in the test with ACHN. In addition, the GI50 in the test on EKVX was 28.4 µM (inactive); in the test on HL-60 it was 27.4 µM (inactive); in the test with OVCAR-5, 40.8 µM (inactive); in the test on DU-145, 58.5 µM (inactive); in the test with COLO 205 it was 35.7 µM (inactive); with SNB-19, 29.5 µM (inactive). Besides, the GI50 was 39.6 µM (inactive) in the test with MCF7, 31 µM (inactive) in the test on SN12C, 54.2 µM (inactive) in the test with SW-620 and 24.4 µM (inactive) in the test on MDA-MB-231.
For `Cc1cccc2c1C(=O)/C(=C/c1ccccc1C(=O)O)C2`, the GI50 was > 100 µM (inactive) with HOP-62; > 100 µM (inactive) with MDA-MB-435; > 100 µM (inactive) in the test with UACC-257; > 100 µM (inactive) with K562; greater than 100 µM with HCT-15; > 100 µM (inactive) in the test on A549. In addition, the GI50 was > 100 µM (inactive) in the test with ACHN; 66.8 µM (inactive) in the test on EKVX; > 100 µM (inactive) with HL-60; > 100 µM (inactive) with OVCAR-5; > 100 µM (inactive) in the test on DU-145; > 100 µM (inactive) with COLO 205. The GI50 in the test on MDA-N, with SNB-19, in the test with MCF7, in the test with SN12C, in the test with SW-620 and in the test on Malme-3M was > 100 µM (inactive) throughout.
For the molecule `CN(Cc1cnc2c(n1)C(N)=NN(N)N2)c1ccc(C(=O)NC(CCP(=O)(O)O)C(=O)O)cc1` (stereo not drawn), the GI50 in the test on HOP-62 is > 100 µM (inactive); in the test on MDA-MB-435, 3.95 µM (inactive); with UACC-257, > 100 µM (inactive); in the test with K562, > 100 µM (inactive); with HCT-15, 6.14 µM; in the test on A549, 2.43 µM (inactive). In addition, the GI50 was 2.17 µM (inactive) with ACHN; > 43.3 µM (inactive) in the test with EKVX; 0.252 µM (active) with HL-60; > 31.5 µM (inactive) with COLO 205; > 30.7 µM (inactive) in the test with SNB-19; 2.18 µM (inactive) in the test on MCF7. The GI50 was > 63.2 µM (inactive) with SN12C, 1.53 µM (inactive) in the test with SW-620, > 23.8 µM (inactive) in the test with Malme-3M and > 100 µM (inactive) in the test with MDA-MB-231.
In the case of `CC(C)(C)C1=C(Br)C(OC(=O)C(F)(F)F)(C(C)(C)C)OP1(=O)c1ccccc1` (stereo not drawn), the GI50 in the test with HOP-62 is 25.9 µM (inactive); in the test on MDA-MB-435 it was 53.3 µM (inactive); in the test with UACC-257 it was 72.9 µM (inactive); in the test on K562 it was 25.5 µM (inactive); with HCT-15, 31.5 µM; with A549, 25.6 µM (inactive). The GI50 in the test on ACHN was 32.7 µM (inactive); in the test on EKVX it was 23.8 µM (inactive); in the test with HL-60, 24.8 µM (inactive); in the test on OVCAR-5 it was > 100 µM (inactive); with DU-145, 45.2 µM (inactive); with COLO 205, 18.5 µM (inactive). For the same molecule, the GI50 is 60.8 µM (inactive) in the test on MDA-N; 57.4 µM (inactive) with SNB-19; 42.7 µM (inactive) in the test on MCF7; 39 µM (inactive) in the test with SN12C; 65 µM (inactive) in the test on Malme-3M.
Regarding `Cc1ccc(O)cc1.Cc1cccc(O)c1.Cc1ccccc1O` [CRESOL], the GI50 is > 100 µM (inactive) in the test with HOP-62; > 100 µM (inactive) in the test on MDA-MB-435; > 100 µM (inactive) with UACC-257; > 100 µM (inactive) in the test with K562; greater than 100 µM with HCT-15; > 100 µM (inactive) in the test with A549. Besides, the GI50 in the test on ACHN, in the test with EKVX, in the test on HL-60, in the test on OVCAR-5, in the test with DU-145 and in the test with COLO 205 was > 100 µM (inactive) each time. For the same molecule, the GI50 in the test on SNB-19 is > 100 µM (inactive); in the test with MCF7 it was > 100 µM (inactive); in the test on SN12C it was > 100 µM (inactive); with SW-620, > 100 µM (inactive); in the test with Malme-3M, 8.61 µM (inactive); in the test on MDA-MB-231, > 100 µM (inactive).
As to `CCC1(N=[N+]=[N-])C(=O)c2ccccc2N(c2ccccc2)C1=O` (stereo not drawn), the GI50 with HOP-62 was > 100 µM (inactive); in the test with UACC-257, > 100 µM (inactive); in the test on K562 it was > 100 µM (inactive); in the test with HCT-15 it was greater than 100 µM; in the test on SR it was > 100 µM (inactive); with A549 it was > 100 µM (inactive). The GI50 with ACHN, in the test on EKVX, with HL-60, with OVCAR-5, in the test with COLO 205 and with SNB-19 was > 100 µM (inactive) in each case. In addition, the GI50 with SN12C, in the test with SW-620 and in the test with Malme-3M was > 100 µM (inactive) throughout.
Consider `CCOC(=O)NC(=O)c1cn(CCN2CCN(C(=O)NCCCCCCNC(=O)N3CCN(CCn4cc(C(=O)NC(=O)OCC)c(=O)n(CCN(CC)CC)c4=O)CC3)CC2)c(=O)n(CCC(CC)CC)c1=O`, for which the GI50 in the test with HOP-62 was > 100 µM (inactive); in the test with UACC-257, > 100 µM (inactive); with K562 it was > 100 µM (inactive); with HCT-15, greater than 100 µM; with SR, > 100 µM (inactive); in the test with A549, > 100 µM (inactive). Besides, the GI50 with ACHN, in the test on EKVX, in the test on HL-60, in the test on OVCAR-5, with COLO 205 and in the test on SNB-19 was > 100 µM (inactive) in each case. Moreover, the GI50 in the test with SN12C, in the test with SW-620 and in the test with Malme-3M was > 100 µM (inactive) in each case.
For `Cc1[nH]c2ccccc2c1C1Cc2ccccc2N1C(=O)/C=C/C(=O)O` (stereo not drawn), the GI50 with HOP-62 was > 100 µM (inactive); with UACC-257, > 100 µM (inactive); with K562, > 100 µM (inactive); in the test with HCT-15, 16.1 µM; in the test with SR it was > 100 µM (inactive); with A549, > 100 µM (inactive). The GI50 in the test with ACHN, in the test with EKVX, with HL-60, in the test on OVCAR-5, with COLO 205 and with SNB-19 was > 100 µM (inactive) each time. Further, the GI50 in the test with SN12C, in the test with SW-620 and in the test on Malme-3M was > 100 µM (inactive) throughout.
As for `CO/N=C(\C(=O)Nc1cncs1)c1csc(NC(c2ccccc2)(c2ccccc2)c2ccccc2)n1`, the GI50 in the test with HOP-62 is > 10 µM (inactive); with UACC-257 it was > 10 µM (inactive); in the test on K562, > 10 µM (inactive); with HCT-15 it was greater than 10 µM; in the test with SR it was 4.12 µM (inactive); with A549 it was 3.84 µM (inactive). Moreover, the GI50 in the test with ACHN was > 10 µM (inactive); in the test on EKVX, 6.12 µM (inactive); in the test on HL-60, 6.85 µM (inactive); in the test with OVCAR-5, > 10 µM (inactive); in the test with DU-145 it was > 10 µM (inactive); in the test with COLO 205, > 10 µM (inactive). Also, the GI50 with MDA-N was > 10 µM (inactive); in the test on SNB-19, > 10 µM (inactive); with MCF7, 6.08 µM (inactive); in the test on SN12C, > 10 µM (inactive); with SW-620 it was > 10 µM (inactive); with Malme-3M it was > 10 µM (inactive).
In the case of `COc1cc(/C=N/N=C(\N)NO)c([N+](=O)[O-])cc1OC`, the GI50 in the test with HOP-62 is 52.7 µM (inactive); with UACC-257 it was 73.1 µM (inactive); in the test with K562 it was 36.5 µM (inactive); with HCT-15 it was 22.7 µM; in the test with SR it was 29.2 µM (inactive); in the test on A549, 26.3 µM (inactive). Besides, the GI50 in the test with ACHN was 14.8 µM (inactive); with EKVX it was 18.1 µM (inactive); with HL-60 it was 26.8 µM (inactive); in the test on OVCAR-5, 37.2 µM (inactive); in the test on COLO 205, 36.1 µM (inactive); with SNB-19, 79.6 µM (inactive). For the same molecule, the GI50 in the test on SN12C is 27 µM (inactive); in the test with SW-620, 47.9 µM (inactive); in the test with Malme-3M, 59.3 µM (inactive).
Take `C=C(C)C1CC/C(C)=C/CC[C@]2(C)O[C@H]2CC/C(COC(C)=O)=C\[C@@H]1O` (stereo partly drawn): the GI50 is 28.8 µM (inactive) in the test on HOP-62; 22.7 µM (inactive) in the test with MDA-MB-435; > 50 µM (inactive) with UACC-257; 11.1 µM (inactive) with K562; greater than 50 µM in the test with HCT-15; 34.6 µM (inactive) in the test on SR. In addition, the GI50 was > 50 µM (inactive) in the test with A549; > 50 µM (inactive) in the test on ACHN; > 50 µM (inactive) with EKVX; 27.4 µM (inactive) in the test on HL-60; > 50 µM (inactive) with OVCAR-5; > 50 µM (inactive) with DU-145. The GI50 is 17.9 µM (inactive) in the test with COLO 205; > 50 µM (inactive) in the test with SNB-19; > 50 µM (inactive) in the test on MCF7; > 50 µM (inactive) with SN12C; > 50 µM (inactive) in the test with SW-620; > 50 µM (inactive) in the test on MDA-MB-231.
